Test results as given in patent publication US8871789B2, “Method of preventing or treating viral infection” (The United States of America, as represented by the …, priority 2010, dated 2014).

Columns and labels:
[1] = test system: HSV-1; assay: Plaque assay of Vero cells infected with HSV-1; type: cell-based; parameters: # Plaques: dose or concentration left out as unconfirmed; settings: for # Plaques: 12 hours infection, then ACV or ML324 for 48 hours
Method: ML324 was ˜75-fold more efficient than DMOG. Additionally, ML324 (i) reduced viral yields in a dose-dependent manner (˜5 logs at 50 mM, FIG. 14); (ii) blocked viral IE gene transcription and reduced viral yields when cells were infected at high multiplicity of infection (MOI; FIGS. 15 and 16); and (iii) suppressed IE gene transcription, even when added at times after infection (>50% reduction at 2 hours after infection; FIG. 17). As further evidence for the efficacy of ML324, cells were infected with HSV to allow for a productive cycle of infection, followed by treatment with DMSO, ACV, or ML324.

[2] = biological target: T1, JMJD2E (Homo sapiens, UniProt B2RXH2); assay: AlphaLISA assay, JMJD2E histone demethylase inhibition; type: biochemical; settings: Table 2; JMJD2E; AlphaLISA, in triplicate; read-out: IC50
T1 sequence (B2RXH2 1-506): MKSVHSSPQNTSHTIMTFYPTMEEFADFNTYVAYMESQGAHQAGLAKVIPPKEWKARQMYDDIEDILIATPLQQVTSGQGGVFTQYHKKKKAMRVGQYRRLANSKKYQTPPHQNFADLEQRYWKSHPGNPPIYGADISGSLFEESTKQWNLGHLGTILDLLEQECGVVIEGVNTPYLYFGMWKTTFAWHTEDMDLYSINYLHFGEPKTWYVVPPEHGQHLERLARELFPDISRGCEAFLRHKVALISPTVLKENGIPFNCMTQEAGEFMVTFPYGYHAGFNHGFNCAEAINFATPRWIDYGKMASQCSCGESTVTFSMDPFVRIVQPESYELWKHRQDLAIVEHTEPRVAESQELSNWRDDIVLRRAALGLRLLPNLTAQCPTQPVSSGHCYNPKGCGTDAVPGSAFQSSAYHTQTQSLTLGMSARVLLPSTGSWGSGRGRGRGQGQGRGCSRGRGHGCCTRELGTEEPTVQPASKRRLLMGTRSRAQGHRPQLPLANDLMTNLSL

[3] = treatment after productive cycle of infection

For `CN(C)CCCNC(=O)c1ccc(-c2cc(O)c3ncccc3c2)cc1` [Compound 4, N-(3-(dimethylamino)propyl)-4-(8-hydroxyquinolin-6-yl)benzamide], the “# Plaques” value ([1]; MOI .001) was 0, the “# Plaques” value ([1]; MOI .01) was 2 and the “formation of HSV plaques” value [1, 3] was “markedly suppressed”. The “spread of infection to adjacent cells (UL29 immunofluorescence)” value [1, 3] was “markedly suppressed” and the IC50 [2] was 0.92 µM.
